# Laboratory results: patent US9034960B2, “Antidrift composition” (Momentive Performance Materials Inc., priority 2012, dated 2015)
# Assays:
# [1] = Spreading/wetting: diameter of a 10 microliter drop on polystyrene dish; format: physicochemical; details: Table 3; aqueous herbicidal spray composition
# Description: The spreading ability of the various superspreaders utilized herein was determined by depositing a single drop (10 microliters) of solution onto a clean, flat polystyrene dish. The polystyrene surfaces were cleaned by rinsing with isopropanol and then with deionized water. The dishes were then dried with dry nitrogen gas. The diameters of the resulting drops were then measured. Each solution was tested 2 to 4 times and the average diameter was calculated.
# velvetleaf = assay: Herbicidal performance of glyphosate spray compositions sprayed on velvetleaf; format: in vivo; details: 1% glyphosate IPA salt
# Description: Urea inclusion complexes containing PAM-PAA copolymer, sodium salt (PAM-PAA-Na) (Zetag 4100, BASF), both without and with Silicone A superspreader, were made from molten urea as was a comparison urea inclusion complex containing PAM and Silicone A. Aqueous herbicidal spray compositions were prepared containing 0.75% of these urea inclusion complexes and 1% glyphosate isopropylamine salt (“[…]”) herbicide and evaluated for reduction of drift, increased spreading and herbicidal performance when sprayed on velvetleaf.
# A solution of 0.042% Silicone A and 1% glyphosate IPA salt (Example 26) was used as a control as was a plain 1% glyphosate IPA salt solution (Example 27).
structure (smiles),measurement,setting,value
"CC(C)N.O=C(O)CNCP(=O)(O)O [Example 27, glyphosate isopropylamine salt]",Drop Spread Diameter,[1],4.8 mm
same,% Control after 1 week,velvetleaf; after 1 week,25%
same,% Control after 2 weeks,velvetleaf; after 2 weeks,81%
